Reference: ChEMBL document CHEMBL1201862, “PubChem BioAssay data set” (2004)
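Cells were grown in 96-well plates and exposed to each compound for 48 hours at five concentrations; endpoints were interpolated linearly between bracketing concentrations, or set to the highest concentration if not reached. The concentration for 50% growth inhibition is given as GI50.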 Active and inactive are the calls of the source. Rule as the data show it: active = GI50 up to about 1.1 µM and inactive = higher. Where a SMILES comes first, the peptide text is derived from it. The star is where a group is joined. Cbz = O=C(OCc1ccccc1)*

Tests used:
Test in all cases: DTP human tumour cell line panel, 48 h
LOX IMVI = test system: LOX IMVI
RXF 393 = test system: RXF 393
EKVX = test system: EKVX
OVCAR-4 = test system: OVCAR-4
UO-31 = test system: UO-31
CCRF-CEM = test system: CCRF-CEM
HCT-116 = test system: HCT-116
MOLT-4 = test system: MOLT-4
Hs-578T = test system: Hs-578T
U-251 = test system: U-251
NCI-H460 = test system: NCI-H460
UACC-257 = test system: UACC-257
SF-268 = test system: SF-268
K562 = test system: K562
786-0 = test system: 786-0
SW-620 = test system: SW-620
OVCAR-5 = test system: OVCAR-5
SK-MEL-2 = test system: SK-MEL-2
HL-60 = test system: HL-60

Measured: GI50

O=c1nc2n(CCO)c(-c3ccccc3)c(-c3ccccc3)nc-2c(=O)[nH]1
inactive: LOX IMVI > 100 µM | RXF 393 > 100 µM | EKVX > 100 µM | OVCAR-4 > 100 µM | UO-31 > 100 µM | CCRF-CEM > 100 µM | HCT-116 > 100 µM | MOLT-4 > 100 µM | Hs-578T > 100 µM | U-251 > 100 µM | NCI-H460 > 100 µM | UACC-257 > 100 µM | SF-268 > 100 µM | K562 > 100 µM | 786-0 > 100 µM | SW-620 > 100 µM | OVCAR-5 > 100 µM | SK-MEL-2 > 100 µM

CCCCc1ccc(-n2c(C)c(COC(=O)NC)c(COC(=O)NC)c2C)cc1
inactive: LOX IMVI 4.65 µM | HL-60 3.56 µM | RXF 393 2.84 µM | EKVX 13 µM | UO-31 2.7 µM | CCRF-CEM 2.92 µM | HCT-116 4.08 µM | Hs-578T 16.6 µM | U-251 4.92 µM | NCI-H460 3.81 µM | UACC-257 10.6 µM | SF-268 4.81 µM | K562 6.03 µM | 786-0 4.08 µM | SW-620 6.46 µM | OVCAR-5 4.78 µM

NC(=O)C(N)CC12CC3CC(CC(C3)C1)C2 (stereo not given)
inactive: LOX IMVI 16 µM | RXF 393 16.3 µM | EKVX 29.6 µM | OVCAR-4 17.5 µM | UO-31 21.7 µM | CCRF-CEM 26.7 µM | HCT-116 17 µM | MOLT-4 21 µM | Hs-578T 19.1 µM | U-251 17.5 µM | NCI-H460 34.4 µM | UACC-257 27.9 µM | SF-268 22.4 µM | K562 28.9 µM | 786-0 22.3 µM | SW-620 33 µM | OVCAR-5 22.8 µM | SK-MEL-2 24.6 µM

CCOC(=O)C(=O)CC(=O)C1=C(c2ccccc2OC)CC(c2cccs2)=CC1=O
inactive: LOX IMVI 83.9 µM | HL-60 55 µM | RXF 393 86.9 µM | EKVX > 100 µM | UO-31 > 100 µM | CCRF-CEM 37.1 µM | HCT-116 31.7 µM | MOLT-4 37.1 µM | Hs-578T 2.75 µM | U-251 86.3 µM | NCI-H460 48.5 µM | UACC-257 > 100 µM | SF-268 > 100 µM | K562 23.4 µM | 786-0 > 100 µM | SW-620 72.3 µM | OVCAR-5 > 100 µM | SK-MEL-2 78.9 µM

Cc1nc(N)c(N2CCN([N+](=O)[O-])CC2)c(O)n1
inactive: LOX IMVI > 100 µM | HL-60 > 100 µM | EKVX > 100 µM | OVCAR-4 > 100 µM | UO-31 > 100 µM | CCRF-CEM > 100 µM | HCT-116 > 100 µM | MOLT-4 > 100 µM | Hs-578T > 100 µM | U-251 > 100 µM | NCI-H460 > 100 µM | UACC-257 > 100 µM | SF-268 > 100 µM | K562 > 100 µM | 786-0 > 100 µM | SW-620 > 100 µM | OVCAR-5 > 100 µM | SK-MEL-2 > 100 µM

Clc1ccc(Cc2nc3cc(Cl)ccc3o2)cc1
inactive: LOX IMVI 14 µM | HL-60 30.4 µM | EKVX 24.8 µM | OVCAR-4 24.4 µM | UO-31 32 µM | CCRF-CEM 31.6 µM | HCT-116 35.1 µM | MOLT-4 26.5 µM | Hs-578T 40.8 µM | U-251 27.7 µM | NCI-H460 42.1 µM | UACC-257 33 µM | SF-268 43 µM | K562 46.1 µM | 786-0 34.4 µM | SW-620 56.4 µM | OVCAR-5 39.4 µM | SK-MEL-2 15.7 µM

Cc1[nH]n(-c2nc(O)c(C)c(=O)[nH]2)c(=O)c1CCO
inactive: HL-60 > 100 µM | RXF 393 22.6 µM | EKVX > 100 µM | OVCAR-4 > 100 µM | UO-31 > 100 µM | CCRF-CEM > 100 µM | HCT-116 > 100 µM | MOLT-4 > 100 µM | Hs-578T > 100 µM | U-251 > 100 µM | NCI-H460 > 100 µM | UACC-257 > 100 µM | SF-268 > 100 µM | K562 > 100 µM | 786-0 > 100 µM | SW-620 > 100 µM | OVCAR-5 > 100 µM | SK-MEL-2 > 100 µM

O=C1c2cc([N+](=O)[O-])cnc2S(=O)(=O)N1c1ccc(Br)cc1
inactive: LOX IMVI > 100 µM | HL-60 > 100 µM | EKVX > 100 µM | OVCAR-4 > 100 µM | UO-31 > 100 µM | CCRF-CEM > 100 µM | HCT-116 > 100 µM | MOLT-4 > 100 µM | Hs-578T > 100 µM | U-251 > 100 µM | NCI-H460 > 100 µM | UACC-257 > 100 µM | SF-268 > 100 µM | 786-0 > 100 µM | SW-620 > 100 µM | OVCAR-5 > 100 µM | SK-MEL-2 > 100 µM

CC(C)CC(=O)CC(O)C(Cl)(Cl)Cl (stereo not given)
inactive: LOX IMVI > 100 µM | RXF 393 > 100 µM | EKVX > 100 µM | OVCAR-4 > 100 µM | UO-31 > 100 µM | CCRF-CEM > 100 µM | HCT-116 > 100 µM | MOLT-4 > 100 µM | Hs-578T 56.2 µM | U-251 > 100 µM | UACC-257 > 100 µM | K562 > 100 µM | 786-0 > 100 µM | SW-620 > 100 µM | OVCAR-5 > 100 µM | SK-MEL-2 > 100 µM

Cc1ccc2c(c1)C(=O)/C(=C\c1ccc(Cl)cc1)CCS2(=O)=O
inactive: LOX IMVI 2.54 µM | HL-60 2.66 µM | EKVX 11.3 µM | OVCAR-4 2.64 µM | UO-31 2.9 µM | CCRF-CEM 2 µM | HCT-116 1.65 µM | MOLT-4 1.85 µM | Hs-578T 3.1 µM | U-251 3.38 µM | NCI-H460 2.13 µM | UACC-257 2.65 µM | SF-268 3.12 µM | K562 1.42 µM | 786-0 1.69 µM | SW-620 3.18 µM | OVCAR-5 12.4 µM | SK-MEL-2 19.4 µM

Cc1ccc(S(=O)(=O)N2CC3OC(C)(C)OC3C2CO)cc1 (stereo not given)
inactive: RXF 393 > 100 µM | OVCAR-4 > 100 µM | CCRF-CEM > 100 µM | HCT-116 > 100 µM | MOLT-4 > 100 µM | Hs-578T > 100 µM | U-251 > 100 µM | NCI-H460 > 100 µM | UACC-257 > 100 µM | SF-268 > 100 µM | K562 > 100 µM | 786-0 > 100 µM | SW-620 > 100 µM | OVCAR-5 > 100 µM | SK-MEL-2 > 100 µM

O=C(CN1CCOCC1)c1ccc2c(c1)oc(=O)n2CCN1CCCCC1
inactive: LOX IMVI > 100 µM | HL-60 > 100 µM | RXF 393 > 100 µM | EKVX 82.2 µM | UO-31 > 100 µM | CCRF-CEM > 100 µM | HCT-116 > 100 µM | MOLT-4 > 100 µM | Hs-578T 7.8 µM | U-251 > 100 µM | NCI-H460 > 100 µM | UACC-257 > 100 µM | SF-268 48.3 µM | K562 > 100 µM | 786-0 > 100 µM | SW-620 > 100 µM | OVCAR-5 > 100 µM | SK-MEL-2 > 100 µM

NC(=O)N/N=C1\C[C@H]2CCCC[C@H]2C1
inactive: LOX IMVI > 100 µM | HL-60 > 100 µM | EKVX > 100 µM | OVCAR-4 > 100 µM | UO-31 > 100 µM | HCT-116 > 100 µM | MOLT-4 > 100 µM | Hs-578T > 100 µM | U-251 > 100 µM | NCI-H460 > 100 µM | UACC-257 > 100 µM | SF-268 > 100 µM | K562 > 100 µM | 786-0 > 100 µM | SW-620 > 100 µM | OVCAR-5 > 100 µM | SK-MEL-2 > 100 µM

O=C1OC(=O)c2cc(S(=O)(=O)c3ccc4c(c3)C(=O)OC4=O)ccc21
inactive: LOX IMVI > 100 µM | RXF 393 > 100 µM | EKVX > 100 µM | OVCAR-4 > 100 µM | UO-31 > 100 µM | CCRF-CEM > 100 µM | HCT-116 > 100 µM | Hs-578T > 100 µM | U-251 > 100 µM | NCI-H460 > 100 µM | UACC-257 > 100 µM | SF-268 > 100 µM | K562 > 100 µM | 786-0 > 100 µM | SW-620 > 100 µM | OVCAR-5 > 100 µM | SK-MEL-2 > 100 µM

CCOC(=O)CNC(=O)C(C)NC(=O)C(NC(=O)OCc1ccccc1)C(C)C (stereo not drawn) (Cbz-Val-Ala-Gly-OEt; configuration not given here)
inactive: RXF 393 > 100 µM | EKVX > 100 µM | UO-31 98.9 µM | HCT-116 > 100 µM | MOLT-4 32 µM | Hs-578T > 100 µM | U-251 > 100 µM | NCI-H460 > 100 µM | UACC-257 > 100 µM | SF-268 > 100 µM | K562 48.1 µM | 786-0 > 100 µM | SW-620 > 100 µM | OVCAR-5 > 100 µM | SK-MEL-2 77.8 µM

COc1cc(O)c2c(O)c3c(=O)oc(C)cc3c(OC)c2c1 [PAEPALANTINE]
inactive: HL-60 27.3 µM | RXF 393 49.8 µM | EKVX 29.9 µM | OVCAR-4 14.7 µM | UO-31 31.8 µM | CCRF-CEM 21.4 µM | HCT-116 20.6 µM | MOLT-4 23 µM | Hs-578T 29.6 µM | U-251 32.5 µM | NCI-H460 32.4 µM | UACC-257 31 µM | SF-268 34.3 µM | K562 23 µM | 786-0 31.1 µM | SW-620 34.2 µM | OVCAR-5 32 µM | SK-MEL-2 31.9 µM
